# Results: paper PMC8859982 (Journal of medicinal chemistry, 2018)
# Where two headings read alike, the source gives them in different places.
# Key:
# [1] = pH 7.4; cited from earlier work
# [2] = target: DHODH (Homo sapiens, UniProt Q02127); assay: DHODH inhibition assay; type: biochemical; settings: for LipE: lipophilic ligand efficiency from DHODH pIC50 (M) and cLogP
# [3] = Thermodynamic solubility; type: physicochemical; settings: for solubility thermodynamic: PBS, pH 7.4, Thermodynamic solubility, PBS pH 7.4, CLND, each entry a single run
# [4] = clinical trial, cited from earlier work
# [5] = Pharmacokinetic study in female CD-1 mice; type: in vivo
# [6] = test system: HCT-116; settings: HCT-116, comparator brequinar
# [7] = test system: MIA PaCa-2; settings: MIA PaCa-2, comparator brequinar
# DHODH, sequence (Q02127 whole entry): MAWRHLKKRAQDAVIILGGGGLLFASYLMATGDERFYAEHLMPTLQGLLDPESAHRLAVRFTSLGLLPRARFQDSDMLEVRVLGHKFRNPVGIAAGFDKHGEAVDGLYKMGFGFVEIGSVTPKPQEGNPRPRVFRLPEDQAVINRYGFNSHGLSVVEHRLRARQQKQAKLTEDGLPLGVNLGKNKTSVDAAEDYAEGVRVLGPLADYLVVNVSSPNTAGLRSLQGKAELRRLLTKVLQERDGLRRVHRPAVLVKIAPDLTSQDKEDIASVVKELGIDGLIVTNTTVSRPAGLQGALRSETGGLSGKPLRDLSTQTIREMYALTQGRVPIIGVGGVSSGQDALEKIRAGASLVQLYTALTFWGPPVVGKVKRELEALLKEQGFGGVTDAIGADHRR
compound,measurement,setting,value
Cc1c(-c2ccc(-c3ccccc3F)cc2)nc2ccc(F)cc2c1C(=O)O [Brequinar sodium],water solubility,[1],< 100 µg/mL
"Cc1c(-c2ccc(-c3ccccc3F)cc2)nc2ccc(F)cc2c1C(=O)O [compound 1, brequinar]",LipE,[2],2.20
same,solubility thermodynamic,[3],407 µg/mL
same,CL,[4]; IV 8 mg/m^2,3.2 L/h/m^2
same,Cmax,[4]; IV 8 mg/m^2,1800 ng/mL
same,Vss,[4]; IV 8 mg/m^2,8.2 L/m^2
same,t1/2,[4]; IV 8 mg/m^2,2.9 h
same,CL,[4]; IV 16 mg/m^2,4.9 L/h/m^2
same,Cmax,[4]; IV 16 mg/m^2,2700 ng/mL
same,Vss,[4]; IV 16 mg/m^2,11.6 L/m^2
same,t1/2,[4]; IV 16 mg/m^2,3.1 h
same,Vss,[4]; IV 36 mg/m^2,7.48 L/m^2
"O=C(O)c1cc(-c2ccc(C3CCCCC3)cc2)nc2ccccc12 [compound 3, 2-(4-Cyclohexylphenyl)quinoline-4-carboxylic Acid]",solubility thermodynamic,[3],14.5 µg/mL
"O=C(O)c1cc(-c2ccc(-c3cccnc3F)cc2)nc2ccccc12 [compound 28, 2-(4-(2-Fluoropyridin-3-yl)phenyl)quinoline-4-carboxylic Acid]",fold less potent than 22 (DHODH),[2]; comparator 22,9 fold
same,fold less potent than 26 (DHODH),[2]; comparator 26,64 fold
same,LipE,[2],1.45
"Cc1c(-c2ccc(-c3cccnc3Cl)cc2)nc2ccc(F)cc2c1C(=O)O [compound 41, 2-(4-(2-Chloropyridin-3-yl)phenyl)-6-fluoro-3-methylquinoline-4-carboxylic Acid]",half-life,"[5]; female, CD-1, mouse, plasma, intravenous, oral",2.73 to 2.78 h
same,CL-F,"[5]; mice, PO 20 mg/kg",9.25 mL/min/kg
same,Vz_F,"[5]; mice, PO 20 mg/kg",2.226 L/kg
same,solubility thermodynamic,[3],393 µg/mL
"Cc1c(-c2ccc(-c3ccccc3)cc2)nc2ncccc2c1C(=O)O [compound 45, 2-([1,1′-Biphenyl]-4-yl)-3-methyl-1,8-naphthyridine-4-carboxylic Acid]",LipE,[2],1.75
"Cc1c(-c2ccc(-c3ccccc3)cc2)nc2cnccc2c1C(=O)O [compound 46, 2-([1,1′-Biphenyl]-4-yl)-3-methyl-1,7-naphthyridine-4-carboxylic Acid]",LipE,[2],3.39
same,fold more soluble than brequinar,[3]; PBS at pH 7.4,2.5–3 ×
same,solubility thermodynamic,[3],1050 µg/mL
"Cc1c(-c2ccc(-c3ccccc3)cc2)nc2ccncc2c1C(=O)O [compound 47, 2-([1,1′-Biphenyl]-4-yl)-3-methyl-1,6-naphthyridine-4-carboxylic Acid]",LipE,[2],1.39
"Cc1c(-c2ccc(-c3ccccc3)cc2)nc2cnc(C(F)(F)F)cc2c1C(=O)O [compound 48, 2-([1,1′-Biphenyl]-4-yl)-3-methyl-6-(trifluoromethyl)-1,7-naphthyridine-4-carboxylic Acid]",LipE,[2],2.63
"Cc1c(-c2ccc(-c3cccnc3Cl)cc2)nc2cnccc2c1C(=O)O [compound 49, 2-(4-(2-Chloropyridin-3-yl)phenyl)-3-methyl-1,7-naphthyridine-4-carboxylic Acid]",LipE,[2],3.46
"Cc1ccc(-c2ccc(-c3nc4cnccc4c(C(=O)O)c3C)cc2)c(Cl)n1 [compound 50, 2-(4-(2-Chloro-6-methylpyridin-3-yl)phenyl)-3-methyl-1,7-naphthyridine-4-carboxylic Acid]",LipE,[2],1.65
"Cc1c(-c2ccc(-c3cccnc3Cl)cc2)nc2cnc(C(F)(F)F)cc2c1C(=O)O [compound 51, 2-(4-(2-Chloropyridin-3-yl)phenyl)-3-methyl-6-(trifluoromethyl)-1.7-naphthyridine-4-carboxylic Acid]",LipE,[2],2.69
"Cc1c(-c2ccc(-c3ccccc3F)cc2)nc2cnc(C(F)(F)F)cc2c1C(=O)O [compound 52, 2-(2’-Fluoro-[1,1’-biphenyl]-4-yl)-3-methyl-6-(trifluoromethyl)-1.7-naphthyridine-4-carboxylic Acid]",LipE,[2],2.74
same,fold more potent than brequinar in the MTT assay,[6],at least 2 fold
same,fold more potent than brequinar in the MTT assay,[7],at least 2 fold
